“Also recorded” adds a separate entry of the source.
Experiments:
human dermal fibroblasts = test: Immunostaining with anti-tropoelastin antibody and morphometric analysis of elastic fiber deposition in 7-day dermal fibroblast cultures; assay type: cell-based; conditions: for elastogenesis level compared with VGVAPG or EBPL-1 treated cultures: 7 day-old primary cultures of dermal fibroblasts; for extracellular elastic fibers deposited (anti-tropoelastin immunostaining) / levels of intra- and extracellular tropoelastin (immunocytochemical staining): 7 days; for extracellular elastic fibers deposited (anti-tropoelastin immunostaining): fibroblasts, VGVAPG 5 μg/mL, EBPL-2 5 μg/mL, EBPL-3 10 μg/mL; for more elastic fibers / tropoelastin than control cultures, maximally produced (quantitative morphometric analysis of immuno-detectable tropoelastin): maximum effect vs control
Method: In all experiments except those using CDBR, consecutive passages 3-7 were tested. Cells were incubated in the presence and absence of VGVAPG (SEQ ID NO. 1) (5 μg/mL), EBPL-2 (5 μg/mL) and EBPL-3 (10 μg/mL). In experiments using CDRB cell passage 3 was tested, cells were densely plated (50×10^6 cells/dish) to rich immediate confluency and than cultured for 7 days in the presence and absence of 25 μg/ml CDBR (added at day 1 and 3).

[1] = test system: human fibroblasts derived from normal human skin; test: [3H]-valine metabolic labeling and assay of newly deposited NaOH-insoluble elastin in fibroblast cultures; assay type: cell-based; conditions: [3H]-valine labeling 3 days; for net deposition of insoluble elastin, maximum over control values: expressed per culture dish, dose dependent
Method: Fibroblasts were densely plated (50×10^5/dish) and grown to confluency in 10 cm cell culture dishes in quadruplicate. 20 μCi of [^3H]-valine was added to each dish along with fresh media. Cultures were then incubated for 72 hours and insoluble elastin was assessed separately in each culture.

[2] = test system: elastin gene in adult dermal fibroblasts; test: RT-PCR with specific tropoelastin probe (transcription of the elastin gene); assay type: cell-based, human; conditions: serum-free medium and 10% FBS
Description: Using a BLAST search through the National Library of Medicine website, we identified the IGVAPG (SEQ ID NO. 13) domain in the amino acid sequence for a transcription factor of Japanese rice, which also reflects the common EBP-binding GXXPG (SEQ ID NO. 2) motif found in elastin and laminin. We used RT-PCR to measure transcription of the elastin gene by peptides of the invention.

dermal fibroblasts = test: Cellular proliferation by [3H]-thymidine incorporation; assay type: cell-based, human; conditions: dermal fibroblasts vs control
Description: Results of this calculation, showing a more profound effect of EBPL-2 on net deposition of insoluble elastin per culture, led to the hypothesis that EBPL-2, similarly to VGVAPG (SEQ ID NO. 1), also stimulates cellular proliferation.

human skin explants = test: Organ cultures of human skin explants stained with Movat pentachrome stain; assay type: cell-based
[3] = adult dermal fibroblasts, 7 day old cultures
[4] = organ cultures of human skin biopsies

Substance	elastogenesis level compared with VGVAPG or EBPL-1 treated cultures (human dermal fibroblasts)	extracellular elastic fibers deposited (anti-tropoelastin immunostaining) (human dermal fibroblasts)	more elastic fibers / tropoelastin than control cultures, maximally produced (quantitative morphometric analysis of immuno-detectable tropoelastin) (human dermal fibroblasts; [3]) [%]	more tropoelastin than maximum ProK-60-induced levels (human dermal fibroblasts; adult dermal fibroblasts, 7 day old cultures, maximum vs maximum ProK-60) [%]	levels of intra- and extracellular tropoelastin (immunocytochemical staining) (human dermal fibroblasts; adult dermal fibroblasts)	more radioactively labeled insoluble elastin as compared to non-treated fibroblasts ([1]; 10 μg/mL, normalized per DNA content) [%]	net deposition of insoluble elastin, maximum over control values [1] [%]	transcription of the elastin gene [2]	incorporation of [3H]-thymidine (cellular proliferation) (dermal fibroblasts)	elastic fibers (black stain) in skin explant organ cultures (human skin explants; 10-day old organ cultures, person)	dilatation of existing dermal capillaries (human skin explants; [4])	production of new elastic fibers by pericytes (human skin explants; [4])
IGVAPG (Synthetic derived from Oryza sativa) [EBPL-2]	capable of inducing elastogenesis to the levels that exceed those obtained in cultures treated with VGVAPG; also recorded: higher net deposition of tropoelastin than their counterparts cultured with VGVAPG	deposition of thick extracellular elastic fibers	710	141	enhanced levels of intra- and extracellular tropoelastin	36	175	increased transcription of the elastin gene	higher than control incorporation of [^3H]-thymidine	contained more elastic fibers	stimulates dilatation of existing capillaries	stimulated production of new elastic fibers by pericytes
IGVAPGAAAAAIGVAPG (Synthetic derived from Oryza sativa) [EBPL-3]	capable of inducing elastogenesis to the levels that exceed those obtained in cultures treated with VGVAPG	deposition of thick extracellular elastic fibers										
VGVAPG (Synthetic derived from Oryza sativa) [elastin receptor ligand hexapeptide obtained from Sigma, reference compound]		very thin extracellular elastic fibers at levels greater than the control levels	457		enhanced levels of intra- and extracellular tropoelastin		109	stimulated transcription	higher than control incorporation of [^3H]-thymidine			
VGVAPGAAAAAVGVAPG (Synthetic derived from Oryza sativa) [EBPL-1]		very thin extracellular elastic fibers at levels greater than the control levels										
